In patent EP0597303A2, “Cephalosporin derivatives” (priority 1992, dated 1994):
Where a name gives a salt, the structure may show the parent alone. Read-outs that look alike come from different tables or passages of the source.

How the values were obtained:
Test in all cases: MIC, Agar (Mueller Hinton) Dilution Method
Type in all cases: cell-based
E. coli B = details: Escherichia coli, Gram Negative
Source text: (§1) The in vitro activity of the compounds of formula I of the present invention as measured by the Minimum Inhibitory Concentration (MIC) in micrograms/ml utilizing the Agar (Mueller Hinton) Dilution Method against a variety of Gram-positive and Gram-negative organisms, is set forth in Table 1.

Prot. vulgaris 100 = details: Proteus vulgaris, Gram Negative
Source text: as §1

Staph. aureus Evans = details: Staphylococcus aureus
Source text: as §1

Staph. aureus 753 = details: Staphylococcus aureus; Staph. aureus 753; methicillin-resistant; Gram Positive and Others; read-out: MIC
Source text: as §1

E. coli 1269B = details: Escherichia coli, Gram Negative
Source text: as §1

E. coli 1527E = details: Escherichia coli, Gram Negative
Source text: as §1

Prot. mirabilis 620A = details: Proteus mirabilis
Source text: as §1

E. coli 2722B = details: Escherichia coli, Gram Negative
Source text: as §1

K. pneumoniae 369 = details: Klebsiella pneumoniae
Source text: as §1

Prot. vulgaris 1028 BC = details: Proteus vulgaris
Source text: as §1

Ser. marcescens MA = details: Serratia marcescens, Gram Negative
Source text: as §1

Ps. aeruginosa 765 = details: Pseudomonas aeruginosa, Gram Negative
Source text: as §1

Escherichia coli 257 = details: Gram Negative
Source text: as §1

Staph. aureus 3037B = details: Staphylococcus aureus; Staph. aureus 3037B; Gram Positive and Others; read-out: MIC
Source text: as §1

[1] = system: Pseudomonas aeruginosa 5712; details: Gram Negative
Source text: as §1

Staph. pyogenes 4 = system: Staph. pyogenes 4
Source text: as §1

E. coli Leo HA2M4 = details: Escherichia coli, LEOHA2M4
Source text: as §1

Prot. mirabilis 503-1136 = details: Proteus mirabilis, 5031136; Prot. mirabilis 503-1136; Gram Negative; read-out: MIC
Source text: as §1

E. coli 2721B = details: Escherichia coli; E. coli 2721B; Gram Negative; read-out: MIC
Source text: as §1

Bacillus subtilis 558 = system: Bacillus subtilis 558
Source text: as §1

[2] = system: Ps. aeruginosa ATCC 27853; details: Pseudomonas aeruginosa, ATCC27853, Gram Negative
Source text: as §1

Str. pyogenes 503-782 = details: Streptococcus pyogenes, 503782
Source text: as §1

Mycobacterium phlei 78 = details: Mycolicibacterium phlei; Mycobacterium phlei 78; Gram Positive and Others; read-out: MIC
Source text: as §1

Ps. aeruginosa 56M = details: Pseudomonas aeruginosa, Gram Negative
Source text: as §1

Candida albicans 155 = details: Gram Positive and Others
Source text: as §1

Ps. aeruginosa 1973 E = details: Pseudomonas aeruginosa, Gram Negative
Source text: as §1

Ps. cepacia 1973 B = details: Burkholderia cepacia, Gram Negative
Source text: as §1

Ser. marcescens 1071 = details: Serratia marcescens
Source text: as §1

Enter. cloacae 4946 = details: Enterobacter cloacae, Gram Negative
Source text: as §1

Ps. aeruginosa 56-1B = details: Pseudomonas aeruginosa, 561B
Source text: as §1

Prot. mirabilis 190 = details: Proteus mirabilis
Source text: as §1

E. coli HMS1 = details: Escherichia coli
Source text: as §1

E. coli TEM-1a = details: Escherichia coli, TEM1A
Source text: as §1

E. coli 1894 E = details: Escherichia coli
Source text: as §1

E. coli DC-0 = details: Escherichia coli, DC0, Gram Negative
Source text: as §1

Staph. aureus 67 = details: Staphylococcus aureus
Source text: as §1

Ser. sp. 101 = details: Ser. sp. 101; Gram Negative; read-out: MIC
Source text: as §1

Xan. maltophilia 2897B = details: Stenotrophomonas maltophilia, Gram Negative
Source text: as §1

Cit. freundii EL-1408 = details: Citrobacter freundii, EL1408
Source text: as §1

Enterobacter cloacae P99 = system: Enterobacter cloacae P99
Source text: as §1

[3] = K. pneumoniae 369, Gram Negative, read-out: MIC
[4] = Staph. pyogenes 4, Gram Positive and Others, read-out: MIC
[5] = E. coli Leo HA2M4, Gram Negative, read-out: MIC
[6] = Str. pyogenes 503-782, Gram Positive and Others, read-out: MIC
[7] = Ser. marcescens 1071, Gram Negative, read-out: MIC
[8] = Ps. aeruginosa 56-1B, Gram Negative, read-out: MIC
[9] = Prot. mirabilis 190, Gram Negative, read-out: MIC
[10] = E. coli HMS1, Gram Negative, read-out: MIC
[11] = Staph. aureus 67, methicillin-resistant, Gram Positive and Others, read-out: MIC
[12] = Cit. freundii EL-1408, Gram Negative, read-out: MIC
[13] = Prot. mirabilis 620A, Gram Negative, read-out: MIC
[14] = E. coli 1894 E, Gram Negative, read-out: MIC

Row | SMILES | MIC (E. coli B) [µg/mL] | MIC (Prot. vulgaris 100) [µg/mL] | MIC (Staph. aureus 753) [µg/mL] | MIC (E. coli 1269B) [µg/mL] | MIC (E. coli 1527E) [µg/mL] | MIC (E. coli 2722B) [µg/mL] | MIC (Ser. marcescens MA) [µg/mL] | MIC (Ps. aeruginosa 765) [µg/mL] | MIC (Escherichia coli 257) [µg/mL] | MIC (Staph. aureus 3037B) [µg/mL] | MIC [1] [µg/mL] | MIC (Prot. mirabilis 503-1136) [µg/mL] | MIC (E. coli 2721B) [µg/mL] | MIC [2] [µg/mL] | MIC (Mycobacterium phlei 78) [µg/mL] | MIC (Ps. aeruginosa 56M) [µg/mL] | MIC (Candida albicans 155) [µg/mL] | MIC (Ps. aeruginosa 1973 E) [µg/mL] | MIC (Ps. cepacia 1973 B) [µg/mL] | MIC (Enter. cloacae 4946) [µg/mL] | further results
1 | O=C(Cc1cccs1)N[C@@H]1C(=O)N2C(C(=O)O)=C(COC(=O)N3CCN(c4c(F)cc5c(=O)c(C(=O)O)cn(C6CC6)c5c4F)CC3)CS[C@H]12 [Formula Ia, [6R,7R]-3-[[[[4-(3-Carboxy-1-cyclopropyl-6,8-difluoro-1,4-dihydro-4-oxo-7-quinolinyl)-1-piperazinyl]carbonyl]-oxy]-methyl]-8-oxo-7-[(2-thienylacetyl)amino]-5-thia-1-azabicyclo-[4.2.0]oct-2-ene-2-carboxylic acid] | 0.0313 | 0.125 | 0.5 | 0.0313 | ≤ 0.0156 | ≤ 0.0156 | 16 | 2 | 0.0625 | 1 | 2 | 0.5 | 0.0313 | 1 | 0.125 | 0.25 | > 128 | 1 | 4 | 0.0625 | MIC (Staph. aureus Evans; Staph. aureus Evans, Gram Positive and Others, read-out: MIC): 0.5 µg/mL; MIC (Prot. mirabilis 620A; 620A): 0.0625 µg/mL; MIC (K. pneumoniae 369; [3]): 0.5 µg/mL; MIC (Prot. vulgaris 1028 BC; 1028BC): 0.0625 µg/mL; MIC (Staph. pyogenes 4; [4]): ≤ 0.0156 µg/mL; MIC (E. coli Leo HA2M4; [5]): ≤ 0.0156 µg/mL; MIC (Bacillus subtilis 558; Bacillus subtilis 558, Gram Positive and Others, read-out: MIC): 0.0313 µg/mL; MIC (Str. pyogenes 503-782; [6]): ≤ 0.0156 µg/mL; MIC (Ser. marcescens 1071; [7]): 0.125 µg/mL; MIC (Ps. aeruginosa 56-1B; [8]): 0.25 µg/mL; MIC (Prot. mirabilis 190; [9]): 0.125 µg/mL; MIC (E. coli HMS1; [10]): ≤ 0.0156 µg/mL; MIC (E. coli TEM-1a): 0.0625 µg/mL; MIC (E. coli 1894 E; 1894E): 0.0625 µg/mL; MIC (E. coli DC-0): 2 µg/mL; MIC (Staph. aureus 67; [11]): 1 µg/mL; MIC (Ser. sp. 101): 0.5 µg/mL; MIC (Xan. maltophilia 2897B): 1 µg/mL; MIC (Cit. freundii EL-1408; [12]): 0.25 µg/mL; MIC (Enterobacter cloacae P99): ≤ 0.0156 µg/mL
2 | N#CCC(=O)N[C@@H]1C(=O)N2C(C(=O)O)=C(COC(=O)NC3CCN(c4c(F)cc5c(=O)c(C(=O)O)cn(C6CC6)c5c4F)C3)CS[C@H]12 (stereo partly drawn) [Formula Ib, [6R,7R]-3-[[[[[1-(3-Carboxy-1-cyclopropyl-6,8-difluoro-1,4-dihydro-4-oxo-7-quinolinyl-3-[R,S]-pyrrolidinyl]-amino]carbonyl]oxy]methyl]-7-[(cyanoacetyl)amino]-8-oxo-5-thia-1-azabicyclo[4.2.0]oct-2-ene-2-carboxyiic acid monosodium salt] | 0.0625 | 0.25 | 0.25 | 0.0625 | 0.0625 | ≤ 0.0156 | 4 | 1 | 0.125 | 0.25 | 2 | 0.25 | 0.0625 | 1 | 0.25 | 0.25 | > 128 | 0.5 | 2 | 0.125 | MIC (Staph. aureus Evans): 0.125 µg/mL; MIC (Prot. mirabilis 620A; [13]): 0.25 µg/mL; MIC (K. pneumoniae 369; [3]): 0.25 µg/mL; MIC (Prot. vulgaris 1028 BC; 1028BC): 0.125 µg/mL; MIC (Staph. pyogenes 4; [4]): 0.0625 µg/mL; MIC (E. coli Leo HA2M4): 0.0313 µg/mL; MIC (Bacillus subtilis 558; Bacillus subtilis, 558): 0.125 µg/mL; MIC (Str. pyogenes 503-782; [6]): 0.0625 µg/mL; MIC (Ser. marcescens 1071; [7]): 0.25 µg/mL; MIC (Ps. aeruginosa 56-1B; [8]): 0.5 µg/mL; MIC (Prot. mirabilis 190; [9]): 0.25 µg/mL; MIC (E. coli HMS1; HMS1): 0.0313 µg/mL; MIC (E. coli TEM-1a): 0.125 µg/mL; MIC (E. coli 1894 E; [14]): 0.0625 µg/mL; MIC (E. coli DC-0): 1 µg/mL; MIC (Staph. aureus 67; [11]): 0.25 µg/mL; MIC (Ser. sp. 101): 0.25 µg/mL; MIC (Xan. maltophilia 2897B): 0.25 µg/mL; MIC (Cit. freundii EL-1408; [12]): 0.25 µg/mL; MIC (Enterobacter cloacae P99): 0.0313 µg/mL
3 | N#CCC(=O)N[C@@H]1C(=O)N2C(C(=O)O)=C(COC(=O)N[C@H]3CCN(c4c(F)cc5c(=O)c(C(=O)O)cn(C6CC6)c5c4F)C3)CS[C@H]12 [Formula Iba, [6R-[3(S^*), 6 alpha, 7 beta]]-3-[[[[[1-(3-Carboxy-1-cyclopropyl-6,8-difluoro-1,4-dihydro-4-oxo-7-quinolinyl-3-pyrrolidinyl]-amino]carbonyl]oxy]methyl]-7-[(cyanoacetyl)amino]-8-oxo-5-thia 1-azabicyclo[4.2.0]oct-2-ene-2-carboxylic acid monosodium salt] | ≤ 0.0156 | 0.0625 | 0.0625 | ≤ 0.0156 | ≤ 0.0156 | ≤ 0.0156 | 4 | 0.5 | 0.0313 | 0.0625 | 2 | 0.0625 | ≤ 0.0156 | 1 | 0.0625 | 0.0625 | > 128 | 0.25 | 4 | 0.0313 | MIC (Staph. aureus Evans): 0.0313 µg/mL; MIC (Prot. mirabilis 620A; [13]): 0.0625 µg/mL; MIC (K. pneumoniae 369; 369): 0.125 µg/mL; MIC (Prot. vulgaris 1028 BC; Prot. vulgaris 1028 BC, Gram Negative, read-out: MIC): ≤ 0.0156 µg/mL; MIC (Staph. pyogenes 4; 4): 0.0313 µg/mL; MIC (E. coli Leo HA2M4; [5]): ≤ 0.0156 µg/mL; MIC (Bacillus subtilis 558; Bacillus subtilis, 558): 0.0313 µg/mL; MIC (Str. pyogenes 503-782): 0.0313 µg/mL; MIC (Ser. marcescens 1071; 1071): 0.0313 µg/mL; MIC (Ps. aeruginosa 56-1B): 0.125 µg/mL; MIC (Prot. mirabilis 190; 190): 0.0313 µg/mL; MIC (E. coli HMS1; [10]): ≤ 0.0156 µg/mL; MIC (E. coli TEM-1a): 0.0313 µg/mL; MIC (E. coli 1894 E; [14]): ≤ 0.0156 µg/mL; MIC (E. coli DC-0): 0.5 µg/mL; MIC (Staph. aureus 67; 67): 0.125 µg/mL; MIC (Ser. sp. 101): 0.0625 µg/mL; MIC (Xan. maltophilia 2897B): 0.25 µg/mL; MIC (Cit. freundii EL-1408): 0.125 µg/mL; MIC (Enterobacter cloacae P99): ≤ 0.0156 µg/mL
